biological target: T1, human PDE4D catalytic domain (Homo sapiens, UniProt Q08499); assay: PDE4 Assay; type: biochemical; details: human PDE4D catalytic domain (S380-L740), TR-FRET with FAM-cAMP; expressed as a range of IC50; read-out: PDE4 Potency Range
T1 construct: UniProt no; Q08499 [S380-L740]
Protocol: The human PDE4D catalytic domain (UniProt no. Q08499 [S380-L740]) was incubated with a mixture of non-labelled cAMP (cyclic adenosine monophosphate) and fluorescein amidite (FAM) conjugated cAMP and titrated test or reference compound. Following brief incubation the enzymatic reaction was stopped by addition of binding buffer containing nanoparticles with immobilized trivalent metal ions capable of binding 1) AMP phospho groups and 2) terbium (Tb) donor fluorophores. Subsequent excitation of the Tb donor triggers time-resolved FRET to adjacent FAM acceptor molecules resulting in light emission. In the presence of a PDE4 inhibitor, AMP generation was reduced resulting in a lower fluorescence signal. The cAMP phosphodiester is not bound by the detection system.
The results were calculated as the molar concentrations resulting in 50% inhibition of the substrate cleavage compared to controls samples, and are expressed as a range of IC50 (nM).

T1 sequence (Q08499 380-740): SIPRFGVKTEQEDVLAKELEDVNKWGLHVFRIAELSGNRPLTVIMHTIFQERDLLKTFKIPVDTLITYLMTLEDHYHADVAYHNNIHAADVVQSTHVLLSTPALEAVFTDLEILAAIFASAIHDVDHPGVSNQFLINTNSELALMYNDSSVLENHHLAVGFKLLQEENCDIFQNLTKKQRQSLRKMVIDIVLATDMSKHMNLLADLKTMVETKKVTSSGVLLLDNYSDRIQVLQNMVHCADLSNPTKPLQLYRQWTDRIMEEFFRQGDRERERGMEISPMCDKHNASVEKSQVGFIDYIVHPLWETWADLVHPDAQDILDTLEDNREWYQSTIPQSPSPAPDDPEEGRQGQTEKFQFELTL

| Compound | IC50 |
| --- | --- |
| CCc1nn(CCCOC(=O)c2cccnc2C)c2c1C(=O)NCC1(CCOCC1)C2 [Example 65, 3-(3-ethyl-4-oxo-spiro[6,8-dihydro-5H-pyrazolo[4,3-c]azepine-7,4′-tetrahydropyran]-1-yl)propyl 2-methylpyridine-3-carboxylate] | 100 to 500 nM |
| CCc1nn(CCCOC(=O)c2ncc(C)cn2)c2c1C(=O)NCC1(CCOCC1)C2 [Example 66, 3-(3-ethyl-4-oxo-spiro[6,8-dihydro-5H-pyrazolo[4,3-c]azepine-7,4′-tetrahydropyran]-1-yl)propyl 5-methylpyrimidine-2-carboxylate] | > 500 nM |
| CCc1nn(CCCOC(=O)c2ccnnc2C)c2c1C(=O)NCC1(CCOCC1)C2 [Example 67, 3-(3-ethyl-4-oxo-spiro[6,8-dihydro-5H-pyrazolo[4,3-c]azepine-7,4′-tetrahydropyran]-1-yl)propyl 3-methylpyridazine-4-carboxylate] | > 500 nM |
| CCc1nn(CCCOC(=O)c2ccnc(C)n2)c2c1C(=O)NCC1(CCOCC1)C2 [Example 68, 3-(3-ethyl-4-oxo-spiro[6,8-dihydro-5H-pyrazolo[4,3-c]azepine-7,4′-tetrahydropyran]-1-yl)propyl 2-methylpyrimidine-4-carboxylate] | > 500 nM |
| CCc1nn(CCCOC(=O)c2nccc(C)n2)c2c1C(=O)NCC1(CCOCC1)C2 [Example 69, 3-(3-ethyl-4-oxo-spiro[6,8-dihydro-5H-pyrazolo[4,3-c]azepine-7,4′-tetrahydropyran]-1-yl)propyl 4-methylpyrimidine-2-carboxylate] | > 500 nM |
| CCc1nn(CCCOC(=O)c2cnc(C)nc2)c2c1C(=O)NCC1(CCOCC1)C2 [Example 70, 3-(3-ethyl-4-oxo-spiro[6,8-dihydro-5H-pyrazolo[4,3-c]azepine-7,4′-tetrahydropyran]-1-yl)propyl 2-methylpyrimidine-5-carboxylate] | 100 to 500 nM |
| CCc1nn(CCCOC(=O)c2cc(C)nn2C)c2c1C(=O)NCC1(CCOCC1)C2 [Example 71, 3-(3-ethyl-4-oxo-spiro[6,8-dihydro-5H-pyrazolo[4,3-c]azepine-7,4′-tetrahydropyran]-1-yl)propyl 2,5-dimethylpyrazole-3-carboxylate] | 100 to 500 nM |
| CCc1nn(CCCOC(=O)c2cc(C)n(C)n2)c2c1C(=O)NCC1(CCOCC1)C2 [Example 72, 3-(3-ethyl-4-oxo-spiro[6,8-dihydro-5H-pyrazolo[4,3-c]azepine-7,4′-tetrahydropyran]-1-yl)propyl 1,5-dimethylpyrazole-3-carboxylate] | > 500 nM |
| CCc1nn(CCCOC(=O)c2cnc(C)n2C)c2c1C(=O)NCC1(CCOCC1)C2 [Example 73, 3-(3-ethyl-4-oxo-spiro[6,8-dihydro-5H-pyrazolo[4,3-c]azepine-7,4′-tetrahydropyran]-1-yl)propyl 2,3-dimethylimidazole-4-carboxylate] | 100 to 500 nM |
| CCc1nn(CCCOC(=O)c2noc(C)c2C)c2c1C(=O)NCC1(CCOCC1)C2 [Example 74, 3-(3-ethyl-4-oxo-spiro[6,8-dihydro-5H-pyrazolo[4,3-c]azepine-7,4′-tetrahydropyran]-1-yl)propyl 4,5-dimethylisoxazole-3-carboxylate] | 100 to 500 nM |
| CCc1nn(CCCOC(=O)c2c(C)noc2C)c2c1C(=O)NCC1(CCOCC1)C2 [Example 75, 3-(3-ethyl-4-oxo-spiro[6,8-dihydro-5H-pyrazolo[4,3-c]azepine-7,4′-tetrahydropyran]-1-yl)propyl 3,5-dimethylisoxazole-4-carboxylate] | > 500 nM |
| CCc1nn(CCCOC(=O)c2nc(C)oc2C)c2c1C(=O)NCC1(CCOCC1)C2 [Example 76, 3-(3-ethyl-4-oxo-spiro[6,8-dihydro-5H-pyrazolo[4,3-c]azepine-7,4′-tetrahydropyran]-1-yl)propyl 2,5-dimethyloxazole-4-carboxylate] | > 500 nM |
| CCc1nn(CCCOC(=O)C2CN(C(C)=O)C2)c2c1C(=O)NCC1(CCOCC1)C2 [Example 77, 3-(3-ethyl-4-oxo-spiro[6,8-dihydro-5H-pyrazolo[4,3-c]azepine-7,4′-tetrahydropyran]-1-yl)propyl 1-acetylazetidine-3-carboxylate] | > 500 nM |
| CCc1nn(CCCOC(=O)c2cc(C)ns2)c2c1C(=O)NCC1(CCOCC1)C2 [Example 78, 3-(3-ethyl-4-oxo-spiro[6,8-dihydro-5H-pyrazolo[4,3-c]azepine-7,4′-tetrahydropyran]-1-yl)propyl 3-methylisothiazole-5-carboxylate] | 100 to 500 nM |
| CCc1nn(CCCOC(=O)c2cnsc2C)c2c1C(=O)NCC1(CCOCC1)C2 [Example 79, 3-(3-ethyl-4-oxo-spiro[6,8-dihydro-5H-pyrazolo[4,3-c]azepine-7,4′-tetrahydropyran]-1-yl)propyl 5-methylisothiazole-4-carboxylate] | 100 to 500 nM |
| CCc1nn(CCCOC(=O)c2ncsc2C)c2c1C(=O)NCC1(CCOCC1)C2 [Example 80, 3-(3-ethyl-4-oxo-spiro[6,8-dihydro-5H-pyrazolo[4,3-c]azepine-7,4′-tetrahydropyran]-1-yl)propyl 5-methylthiazole-4-carboxylate] | 100 to 500 nM |
| CCc1nn(CCCOC(=O)c2scnc2C)c2c1C(=O)NCC1(CCOCC1)C2 [Example 81, 3-(3-ethyl-4-oxo-spiro[6,8-dihydro-5H-pyrazolo[4,3-c]azepine-7,4′-tetrahydropyran]-1-yl)propyl 4-methylthiazole-5-carboxylate] | 100 to 500 nM |
| CCc1nn(CCCOC(=O)c2cnc(C)s2)c2c1C(=O)NCC1(CCOCC1)C2 [Example 82, 3-(3-ethyl-4-oxo-spiro[6,8-dihydro-5H-pyrazolo[4,3-c]azepine-7,4′-tetrahydropyran]-1-yl)propyl 2-methylthiazole-5-carboxylate] | 100 to 500 nM |
| CCc1nn(CCCOC(=O)c2snnc2C)c2c1C(=O)NCC1(CCOCC1)C2 [Example 83, 3-(3-ethyl-4-oxo-spiro[6,8-dihydro-5H-pyrazolo[4,3-c]azepine-7,4′-tetrahydropyran]-1-yl)propyl 4-methylthiadiazole-5-carboxylate] | > 500 nM |
| CCc1nn(CCCOC(=O)C2CCCSC2)c2c1C(=O)NCC1(CCOCC1)C2 (stereo not drawn) [Example 84, 3-(3-ethyl-4-oxo-spiro[6,8-dihydro-5H-pyrazolo[4,3-c]azepine-7,4′-tetrahydropyran]-1-yl)propyl tetrahydrothiopyran-3-carboxylate] | 100 to 500 nM |
| CCc1nn(CCCOC(=O)C2CCSCC2)c2c1C(=O)NCC1(CCOCC1)C2 [Example 85, 3-(3-ethyl-4-oxo-spiro[6,8-dihydro-5H-pyrazolo[4,3-c]azepine-7,4′-tetrahydropyran]-1-yl)propyl tetrahydrothiopyran-4-carboxylate] | 100 to 500 nM |
| CCc1nn(CCCOC(=O)c2cc(C)nc(C)c2)c2c1C(=O)NCC1(CCOCC1)C2 [Example 86, 3-(3-ethyl-4-oxo-spiro[6,8-dihydro-5H-pyrazolo[4,3-c]azepine-7,4′-tetrahydropyran]-1-yl)propyl 2,6-dimethylpyridine-4-carboxylate] | 100 to 500 nM |
| CCc1nn(CCCOC(=O)c2ccc(C)nc2C)c2c1C(=O)NCC1(CCOCC1)C2 [Example 87, 3-(3-ethyl-4-oxo-spiro[6,8-dihydro-5H-pyrazolo[4,3-c]azepine-7,4′-tetrahydropyran]-1-yl)propyl 2,6-dimethylpyridine-3-carboxylate] | < 100 nM |
| CCc1nn(CCCOC(=O)c2cc(C)nnc2C)c2c1C(=O)NCC1(CCOCC1)C2 [Example 88, 3-(3-ethyl-4-oxo-spiro[6,8-dihydro-5H-pyrazolo[4,3-c]azepine-7,4′-tetrahydropyran]-1-yl)propyl 3,6-dimethylpyridazine-4-carboxylate] | > 500 nM |
| CCc1nn(CCCOC(=O)c2coc(C3CC3)n2)c2c1C(=O)NCC1(CCOCC1)C2 [Example 89, 3-(3-ethyl-4-oxo-spiro[6,8-dihydro-5H-pyrazolo[4,3-c]azepine-7,4′-tetrahydropyran]-1-yl)propyl 2-cyclopropyloxazole-4-carboxylate] | 100 to 500 nM |
| CCc1nn(CCCOC(=O)c2cc(C)nn2CC)c2c1C(=O)NCC1(CCOCC1)C2 [Example 90, 3-(3-ethyl-4-oxo-spiro[6,8-dihydro-5H-pyrazolo[4,3-c]azepine-7,4′-tetrahydropyran]-1-yl)propyl 2-ethyl-5-methyl-pyrazole-3-carboxylate] | 100 to 500 nM |
| CCc1nn(CCCOC(=O)c2c(C)nn(C)c2C)c2c1C(=O)NCC1(CCOCC1)C2 [Example 91, 3-(3-ethyl-4-oxo-spiro[6,8-dihydro-5H-pyrazolo[4,3-c]azepine-7,4′-tetrahydropyran]-1-yl)propyl 1,3,5-trimethylpyrazole-4-carboxylate] | 100 to 500 nM |
| CCc1noc(C)c1C(=O)OCCCn1nc(CC)c2c1CC1(CCOCC1)CNC2=O [Example 92, 3-(3-ethyl-4-oxo-spiro[6,8-dihydro-5H-pyrazolo[4,3-c]azepine-7,4′-tetrahydropyran]-1-yl)propyl 3-ethyl-5-methyl-isoxazole-4-carboxylate] | > 500 nM |
| CCc1nn(CCCOC(=O)C2CCN(C(C)=O)C2)c2c1C(=O)NCC1(CCOCC1)C2 (stereo not drawn) [Example 93, 3-(3-ethyl-4-oxo-spiro[6,8-dihydro-5H-pyrazolo[4,3-c]azepine-7,4′-tetrahydropyran]-1-yl)propyl 1-acetylpyrrolidine-3-carboxylate] | > 500 nM |
| CCc1nn(CCCOC(=O)c2nc(C)c(C)s2)c2c1C(=O)NCC1(CCOCC1)C2 [Example 94, 3-(3-ethyl-4-oxo-spiro[6,8-dihydro-5H-pyrazolo[4,3-c]azepine-7,4′-tetrahydropyran]-1-yl)propyl 4,5-dimethylthiazole-2-carboxylate] | 100 to 500 nM |

Reference: US11065257B2, “Substituted pyrazoloazepin-4-ones and their use as phosphodiesterase inhibitors” (LEO Pharma A/S, priority 2016, dated 2021)
